Experiments:
Type in all cases: cell-based
[1] = molecular target: T1, 11-beta-hydroxysteroid dehydrogenase 1 (Homo sapiens, UniProt P28845); test: Inhibition of human 11beta-HSD1 in expressed in HEK293 cells microsomal fractions incubated with NADPH and [3H]-cortisone by scintillation proximity assay
Target sequence in this assay (P28845 whole entry): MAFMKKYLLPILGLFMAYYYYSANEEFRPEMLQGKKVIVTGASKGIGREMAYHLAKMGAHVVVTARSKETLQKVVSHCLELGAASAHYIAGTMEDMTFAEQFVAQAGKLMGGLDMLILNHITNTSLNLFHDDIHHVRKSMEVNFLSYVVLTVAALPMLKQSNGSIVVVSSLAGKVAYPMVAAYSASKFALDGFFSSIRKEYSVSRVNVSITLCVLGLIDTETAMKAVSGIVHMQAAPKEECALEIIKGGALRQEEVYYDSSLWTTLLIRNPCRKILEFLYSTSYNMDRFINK

[2] = molecular target: 11-beta-hydroxysteroid dehydrogenase 1 (Mus musculus) (UniProt P50172); test: Inhibition of mouse 11beta-HSD1 in expressed in HEK293 cells microsomal fractions incubated with NADPH and [3H]-cortisone at 10 uM by scintillation proximity assay
[3] = molecular target: 11-beta-hydroxysteroid dehydrogenase 1 (Mus musculus, UniProt P50172); test: Inhibition of mouse 11beta-HSD1 in expressed in HEK293 cells microsomal fractions incubated with NADPH and [3H]-cortisone by scintillation proximity assay
[4] = molecular target: T1, 11-beta-hydroxysteroid dehydrogenase 1; test: Inhibition of human 11beta-HSD1 in expressed in HEK293 cells microsomal fractions incubated with NADPH and [3H]-cortisone at 10 uM by scintillation proximity assay
Target sequence in this assay (P28845 whole entry, looked up): as the sequence (P28845 whole entry) above

Chain of 11-beta-hydroxysteroid dehydrogenase 1 (Mus musculus) (P50172 whole entry, looked up): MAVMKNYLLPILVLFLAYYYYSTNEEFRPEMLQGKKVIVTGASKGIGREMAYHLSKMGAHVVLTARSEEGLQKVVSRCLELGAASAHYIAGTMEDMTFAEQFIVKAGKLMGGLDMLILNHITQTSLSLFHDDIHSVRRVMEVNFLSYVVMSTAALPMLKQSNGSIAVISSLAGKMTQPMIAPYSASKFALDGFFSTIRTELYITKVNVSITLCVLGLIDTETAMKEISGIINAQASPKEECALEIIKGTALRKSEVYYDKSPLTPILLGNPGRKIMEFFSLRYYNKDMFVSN
Chain of 11-beta-hydroxysteroid dehydrogenase 1 (Mus musculus, UniProt P50172) (P50172 whole entry): as the sequence (P50172 whole entry, looked up) above

`C=C(CC[C@@H](COC(C)=O)[C@H]1CC[C@@]2(C)[C@@H]3CC[C@@H](C(C)(C)O)[C@@]4(CCC(=O)O)C[C@@]34CC[C@]12C)C(C)C` was tested, and the IC50 [1] was 3.8 µM.
`C=C(CC[C@@H](C(=O)O)[C@H]1CC[C@@]2(C)[C@@H]3CC[C@H]4C(C)(C)C(=O)CC[C@@]45C[C@@]35CC[C@]12C)C(C)C` was tested, and the inhibition [2] was > 60% and the IC50 [1] was 2.3 µM.
For `C=C(CC[C@@H](COC(C)=O)[C@H]1CC[C@@]2(C)[C@@H]3CC[C@@H](C(=C)C)[C@@]4(CCC(=O)O)C[C@@]34CC[C@]12C)C(C)C`, the inhibition [2] was 73%, the IC50 [1] was 4.1 µM and the IC50 [3] was 2.8 µM. For the same molecule, the inhibition [4] was > 60%.
In the case of `C=C(CC[C@@H](CO)[C@H]1CC[C@@]2(C)[C@@H]3CC[C@@H](C(=C)C)[C@@]4(CCC(=O)O)C[C@@]34CC[C@]12C)C(C)C`, the inhibition [2] is reported as 94%, the IC50 [1] is reported as 1.4 µM and the IC50 [3] is reported as 0.49 µM. For the same molecule, the inhibition [4] was > 80%.

From ChEMBL document CHEMBL3352672, “Lithocarpic acids O-S, five homo-cycloartane derivatives from the cupules of Lithocarpus polystachyus” (Bioorg Med Chem Lett, 2014)
